According to patent publication USRE34918E, “Azaazulene compounds which are useful as antiallergic and antiinflammatory agents” (Kaken Pharmaceutical Co., Ltd., priority 1988, dated 1995):

Tests used:
Acute toxicity in mouse = format: in vivo; details: 2 weeks observation
Experimental: The test was carried out with the compounds obtained in Examples 5 and 9. Groups of 5 male ddy mice weighing 26 to 28 g were employed. The test compounds were suspended in a 0.5% CMC aqueous solution and the resulting suspension was administered orally in an amount of 500 for the compound obtained in Example 9, 1000 or 2000 mg/kg body weight. The survivors were kept under observation daily for 2 weeks. From the results shown in Table 6, the LD50 of the compounds obtained in Example 5 and 9 were estimated to be more than 2000 mg/kg. The other compounds of the present invention also had the same toxicity as the above compounds.

5-lipoxygenase = target: T1, 5-lipoxygenase (Cavia porcellus, UniProt A0A286X958); assay: 5-lipoxygenase inhibiting activity in guinea pig; format: biochemical; details: read-out: Inhibition rate against 5-lipoxygenase activity
T1 construct: 5-lipoxygenase was prepared with polymorphonuclear leukocyte obtained from peritoneal cavity; endogenous in cells; host or cells: guinea pig peritoneal polymorphonuclear leukocytes (casein-elicited)
T1 sequence (A0A286X958 1-674): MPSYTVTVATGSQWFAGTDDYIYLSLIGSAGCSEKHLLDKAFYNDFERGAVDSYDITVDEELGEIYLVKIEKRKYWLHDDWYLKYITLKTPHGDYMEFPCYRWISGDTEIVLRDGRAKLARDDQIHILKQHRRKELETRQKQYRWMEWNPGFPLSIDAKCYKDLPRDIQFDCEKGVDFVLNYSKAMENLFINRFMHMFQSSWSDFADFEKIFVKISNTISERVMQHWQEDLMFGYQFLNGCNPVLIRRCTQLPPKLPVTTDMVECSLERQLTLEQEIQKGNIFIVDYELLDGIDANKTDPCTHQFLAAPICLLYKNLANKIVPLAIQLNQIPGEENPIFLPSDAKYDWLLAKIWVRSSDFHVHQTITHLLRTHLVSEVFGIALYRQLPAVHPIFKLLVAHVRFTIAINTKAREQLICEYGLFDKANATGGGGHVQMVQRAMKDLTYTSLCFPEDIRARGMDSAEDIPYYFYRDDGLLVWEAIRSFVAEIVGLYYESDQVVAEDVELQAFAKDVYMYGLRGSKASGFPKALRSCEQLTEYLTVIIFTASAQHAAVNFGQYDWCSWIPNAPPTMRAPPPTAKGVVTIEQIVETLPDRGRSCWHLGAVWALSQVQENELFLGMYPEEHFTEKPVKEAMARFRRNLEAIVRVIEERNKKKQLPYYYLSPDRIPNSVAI

In the case of CC(C)c1cccc2n(Cc3ccc(F)cc3)c(=O)c(-c3nnn[nH]3)c-2c1 [Example 9, 1-(4-Fluorobenzyl)-5-iso-propyl-3-(5-tetrazolyl)-1-azaazulane-2-one], the Mortality (Acute toxicity in mouse; 500 mg/kg p.o.) was 0/5, the Mortality (Acute toxicity in mouse; 1000 mg/kg p.o.) was 0/5 and the Mortality (Acute toxicity in mouse; 2000 mg/kg p.o.) was 0/5. It also gave an LD50 at 336 h (Acute toxicity in mouse; mouse, in vivo, oral) greater than 2000 mg/kg and an inhibition at 10 µM (5-lipoxygenase) of -5.4%.
